Measurements from patent publication US12479847B2 (DANA-FARBER CANCER INSTITUTE, INC., priority 2019, dated 2025).
Where two headings read alike, the source gives them in different places.

Assays:
Test in all cases: KINOMEscan (ScanMAX) kinase profiling
Format in all cases: binding
panel of 468 kinases [1] = molecular target: T1, panel of 468 kinases (Homo sapiens, UniProt O14578); conditions: CIT; 1 μM; read-out: % control
T1 construct: purchased KINOMEscan (ScanMAX) service

panel of 468 kinases [2] = molecular target: T2, panel of 468 kinases (Homo sapiens, UniProt P00533, T790M); conditions: EGFR(T790M); 1 μM; read-out: % control
T2 construct: purchased KINOMEscan (ScanMAX) service

panel of 468 kinases [3] = molecular target: T3, panel of 468 kinases (Homo sapiens, UniProt P06213); conditions: INSR; 1 μM; read-out: % control
T3 construct: purchased KINOMEscan (ScanMAX) service

panel of 468 kinases [4] = molecular target: T4, panel of 468 kinases (Homo sapiens, UniProt P36888); conditions: 1 μM, read-out: % control
T4 construct: purchased KINOMEscan (ScanMAX) service
T4 sequence (P36888 27-993): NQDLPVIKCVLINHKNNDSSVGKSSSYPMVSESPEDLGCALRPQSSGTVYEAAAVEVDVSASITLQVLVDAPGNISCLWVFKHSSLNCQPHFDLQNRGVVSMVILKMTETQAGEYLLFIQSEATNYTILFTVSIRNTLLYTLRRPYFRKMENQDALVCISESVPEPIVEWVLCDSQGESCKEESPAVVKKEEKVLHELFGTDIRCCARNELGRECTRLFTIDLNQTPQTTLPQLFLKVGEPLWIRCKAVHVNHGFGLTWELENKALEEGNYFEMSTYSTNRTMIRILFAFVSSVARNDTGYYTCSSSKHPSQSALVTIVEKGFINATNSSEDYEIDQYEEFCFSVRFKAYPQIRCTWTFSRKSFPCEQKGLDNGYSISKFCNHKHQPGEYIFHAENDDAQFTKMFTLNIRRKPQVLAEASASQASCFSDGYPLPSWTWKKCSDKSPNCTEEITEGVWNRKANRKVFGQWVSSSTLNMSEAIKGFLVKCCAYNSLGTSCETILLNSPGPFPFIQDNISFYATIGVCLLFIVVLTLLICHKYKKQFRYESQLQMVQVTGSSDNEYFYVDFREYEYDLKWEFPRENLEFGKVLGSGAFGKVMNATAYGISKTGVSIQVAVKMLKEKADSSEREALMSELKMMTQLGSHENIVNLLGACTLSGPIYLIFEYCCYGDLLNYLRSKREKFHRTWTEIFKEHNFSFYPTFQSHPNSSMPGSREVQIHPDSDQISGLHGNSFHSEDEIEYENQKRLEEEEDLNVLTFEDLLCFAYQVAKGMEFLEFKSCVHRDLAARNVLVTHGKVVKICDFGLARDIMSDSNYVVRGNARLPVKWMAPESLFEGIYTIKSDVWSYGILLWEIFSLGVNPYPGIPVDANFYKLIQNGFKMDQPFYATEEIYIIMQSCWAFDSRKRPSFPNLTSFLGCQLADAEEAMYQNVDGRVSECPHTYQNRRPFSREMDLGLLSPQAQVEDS

panel of 468 kinases [5] = molecular target: T5, panel of 468 kinases (Homo sapiens, UniProt P51812); conditions: 1 μM, read-out: % control
T5 construct: purchased KINOMEscan (ScanMAX) service

panel of 468 kinases [6] = molecular target: T6, panel of 468 kinases (Homo sapiens, UniProt Q00537); conditions: PCTK2; 1 μM; read-out: % control
T6 construct: purchased KINOMEscan (ScanMAX) service

panel of 468 kinases [7] = molecular target: T7, panel of 468 kinases (Homo sapiens, UniProt Q13131); conditions: AMPK-alpha1; 1 μM; read-out: % control
T7 construct: purchased KINOMEscan (ScanMAX) service

panel of 468 kinases [8] = molecular target: T8, panel of 468 kinases (Homo sapiens, UniProt Q86UE8); conditions: TLK2; 1 μM; read-out: % control
T8 construct: purchased KINOMEscan (ScanMAX) service

panel of 468 kinases [9] = molecular target: T9, panel of 468 kinases (Homo sapiens, UniProt Q8WTQ7); conditions: GRK7; 1 μM; read-out: % control
T9 construct: purchased KINOMEscan (ScanMAX) service
T9 sequence (Q8WTQ7 1-553): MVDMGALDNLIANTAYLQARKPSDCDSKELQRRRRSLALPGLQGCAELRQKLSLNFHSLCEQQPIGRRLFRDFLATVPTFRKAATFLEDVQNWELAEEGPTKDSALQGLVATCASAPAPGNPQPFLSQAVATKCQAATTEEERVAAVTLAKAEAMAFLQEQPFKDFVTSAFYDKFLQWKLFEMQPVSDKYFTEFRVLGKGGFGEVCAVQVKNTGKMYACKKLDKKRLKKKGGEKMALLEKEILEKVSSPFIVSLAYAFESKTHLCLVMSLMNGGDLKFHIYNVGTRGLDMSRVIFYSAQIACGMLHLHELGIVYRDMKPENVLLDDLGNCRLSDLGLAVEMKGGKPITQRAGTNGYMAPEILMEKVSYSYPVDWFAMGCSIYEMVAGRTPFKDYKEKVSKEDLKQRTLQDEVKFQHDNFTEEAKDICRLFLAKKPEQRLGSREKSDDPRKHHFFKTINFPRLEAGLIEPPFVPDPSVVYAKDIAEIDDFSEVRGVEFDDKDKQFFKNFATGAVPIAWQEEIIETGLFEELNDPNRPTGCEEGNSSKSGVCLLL

panel of 468 kinases [10] = molecular target: T10, panel of 468 kinases (Homo sapiens, UniProt Q96Q40); conditions: PFTAIRE2; 1 μM; read-out: % control
T10 construct: purchased KINOMEscan (ScanMAX) service

panel of 468 kinases [11] = molecular target: T11, panel of 468 kinases (Homo sapiens, UniProt Q96RR4); conditions: CAMKK2; 1 μM; read-out: % control
T11 construct: purchased KINOMEscan (ScanMAX) service

panel of 468 kinases [12] = molecular target: T12, panel of 468 kinases (Homo sapiens, UniProt Q9NYL2); conditions: ZAK; 1 μM; read-out: % control
T12 construct: purchased KINOMEscan (ScanMAX) service

panel of 468 kinases [13] = conditions: 1 μM

T5 sequence (P51812 whole entry): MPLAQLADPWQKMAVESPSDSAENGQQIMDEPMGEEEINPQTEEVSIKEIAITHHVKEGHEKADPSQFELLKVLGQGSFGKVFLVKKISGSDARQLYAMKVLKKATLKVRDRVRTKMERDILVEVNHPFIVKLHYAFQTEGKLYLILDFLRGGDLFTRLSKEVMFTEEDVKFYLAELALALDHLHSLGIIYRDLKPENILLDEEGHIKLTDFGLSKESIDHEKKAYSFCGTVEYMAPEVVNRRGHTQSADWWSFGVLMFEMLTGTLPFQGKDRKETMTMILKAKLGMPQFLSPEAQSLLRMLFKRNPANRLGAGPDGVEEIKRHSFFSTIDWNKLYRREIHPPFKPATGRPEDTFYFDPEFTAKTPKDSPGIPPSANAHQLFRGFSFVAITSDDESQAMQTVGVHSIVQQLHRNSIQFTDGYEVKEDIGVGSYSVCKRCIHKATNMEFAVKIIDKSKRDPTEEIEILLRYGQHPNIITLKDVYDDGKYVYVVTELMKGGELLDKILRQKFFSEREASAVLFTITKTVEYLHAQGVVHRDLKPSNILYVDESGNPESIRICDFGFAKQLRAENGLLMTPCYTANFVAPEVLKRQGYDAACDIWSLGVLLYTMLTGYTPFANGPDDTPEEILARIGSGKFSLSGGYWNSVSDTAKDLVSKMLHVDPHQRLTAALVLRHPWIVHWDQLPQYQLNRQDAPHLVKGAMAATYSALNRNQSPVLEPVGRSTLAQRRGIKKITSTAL
T3 sequence (P06213 28-1382): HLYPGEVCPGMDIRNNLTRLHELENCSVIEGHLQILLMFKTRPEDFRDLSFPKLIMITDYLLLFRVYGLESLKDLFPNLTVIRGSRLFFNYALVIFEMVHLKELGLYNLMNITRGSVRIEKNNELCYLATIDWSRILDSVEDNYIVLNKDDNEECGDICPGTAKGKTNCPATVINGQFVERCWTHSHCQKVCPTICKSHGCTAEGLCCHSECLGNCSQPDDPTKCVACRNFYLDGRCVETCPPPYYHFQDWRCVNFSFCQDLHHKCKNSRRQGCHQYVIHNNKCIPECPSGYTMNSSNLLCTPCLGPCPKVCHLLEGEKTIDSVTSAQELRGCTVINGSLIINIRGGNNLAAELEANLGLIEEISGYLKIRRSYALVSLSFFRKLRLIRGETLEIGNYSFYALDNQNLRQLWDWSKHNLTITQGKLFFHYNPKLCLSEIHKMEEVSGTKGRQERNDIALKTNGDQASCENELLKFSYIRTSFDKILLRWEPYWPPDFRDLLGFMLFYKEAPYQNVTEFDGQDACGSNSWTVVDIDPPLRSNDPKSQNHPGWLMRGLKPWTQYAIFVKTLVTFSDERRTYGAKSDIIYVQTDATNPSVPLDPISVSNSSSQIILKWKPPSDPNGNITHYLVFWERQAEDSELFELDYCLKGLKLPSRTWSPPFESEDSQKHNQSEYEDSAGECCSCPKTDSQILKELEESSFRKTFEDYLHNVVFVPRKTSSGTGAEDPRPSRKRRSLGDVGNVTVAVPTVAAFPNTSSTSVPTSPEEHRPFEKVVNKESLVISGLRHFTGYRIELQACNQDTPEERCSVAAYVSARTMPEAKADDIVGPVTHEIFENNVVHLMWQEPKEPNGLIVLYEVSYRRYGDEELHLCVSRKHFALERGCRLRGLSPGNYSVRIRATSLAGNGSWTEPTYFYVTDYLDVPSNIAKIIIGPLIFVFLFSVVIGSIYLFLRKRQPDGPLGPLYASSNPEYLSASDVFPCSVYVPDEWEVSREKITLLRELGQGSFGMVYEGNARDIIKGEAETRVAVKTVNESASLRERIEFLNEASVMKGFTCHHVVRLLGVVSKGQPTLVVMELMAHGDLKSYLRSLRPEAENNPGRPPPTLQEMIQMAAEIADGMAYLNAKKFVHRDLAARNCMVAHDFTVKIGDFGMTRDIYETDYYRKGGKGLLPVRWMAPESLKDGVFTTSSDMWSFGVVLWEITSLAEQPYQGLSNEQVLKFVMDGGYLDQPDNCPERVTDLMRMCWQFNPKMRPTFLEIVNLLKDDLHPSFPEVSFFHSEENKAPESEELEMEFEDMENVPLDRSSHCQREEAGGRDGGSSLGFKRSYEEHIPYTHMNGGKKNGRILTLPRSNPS
T10 sequence (Q96Q40 whole entry): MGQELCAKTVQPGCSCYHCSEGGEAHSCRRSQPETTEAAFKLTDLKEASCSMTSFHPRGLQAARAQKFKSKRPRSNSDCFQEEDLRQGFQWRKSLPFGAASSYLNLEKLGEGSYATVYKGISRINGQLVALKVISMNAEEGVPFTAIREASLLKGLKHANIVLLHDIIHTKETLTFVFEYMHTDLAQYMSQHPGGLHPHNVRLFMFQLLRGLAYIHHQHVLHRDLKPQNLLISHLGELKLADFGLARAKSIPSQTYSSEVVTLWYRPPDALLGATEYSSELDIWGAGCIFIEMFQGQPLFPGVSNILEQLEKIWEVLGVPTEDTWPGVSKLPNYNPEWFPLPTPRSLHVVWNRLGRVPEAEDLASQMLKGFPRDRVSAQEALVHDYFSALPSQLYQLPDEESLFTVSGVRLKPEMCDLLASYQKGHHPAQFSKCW
T7 sequence (Q13131 whole entry): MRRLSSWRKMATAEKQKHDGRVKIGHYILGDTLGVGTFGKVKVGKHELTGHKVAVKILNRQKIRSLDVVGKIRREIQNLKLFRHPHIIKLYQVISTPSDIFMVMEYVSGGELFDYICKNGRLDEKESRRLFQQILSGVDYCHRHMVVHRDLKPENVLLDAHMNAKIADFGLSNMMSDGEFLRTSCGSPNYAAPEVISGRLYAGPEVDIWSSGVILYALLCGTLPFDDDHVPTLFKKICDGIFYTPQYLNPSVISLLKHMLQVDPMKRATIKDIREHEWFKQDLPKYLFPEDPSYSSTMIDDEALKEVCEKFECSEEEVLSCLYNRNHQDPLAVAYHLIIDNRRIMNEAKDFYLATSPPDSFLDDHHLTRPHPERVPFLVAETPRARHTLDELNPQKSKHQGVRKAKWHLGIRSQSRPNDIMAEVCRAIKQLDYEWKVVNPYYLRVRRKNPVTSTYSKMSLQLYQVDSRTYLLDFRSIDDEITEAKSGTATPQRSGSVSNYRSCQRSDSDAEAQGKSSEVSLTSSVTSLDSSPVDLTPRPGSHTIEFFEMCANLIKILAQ
T2 sequence (P00533 25-1210 T790M): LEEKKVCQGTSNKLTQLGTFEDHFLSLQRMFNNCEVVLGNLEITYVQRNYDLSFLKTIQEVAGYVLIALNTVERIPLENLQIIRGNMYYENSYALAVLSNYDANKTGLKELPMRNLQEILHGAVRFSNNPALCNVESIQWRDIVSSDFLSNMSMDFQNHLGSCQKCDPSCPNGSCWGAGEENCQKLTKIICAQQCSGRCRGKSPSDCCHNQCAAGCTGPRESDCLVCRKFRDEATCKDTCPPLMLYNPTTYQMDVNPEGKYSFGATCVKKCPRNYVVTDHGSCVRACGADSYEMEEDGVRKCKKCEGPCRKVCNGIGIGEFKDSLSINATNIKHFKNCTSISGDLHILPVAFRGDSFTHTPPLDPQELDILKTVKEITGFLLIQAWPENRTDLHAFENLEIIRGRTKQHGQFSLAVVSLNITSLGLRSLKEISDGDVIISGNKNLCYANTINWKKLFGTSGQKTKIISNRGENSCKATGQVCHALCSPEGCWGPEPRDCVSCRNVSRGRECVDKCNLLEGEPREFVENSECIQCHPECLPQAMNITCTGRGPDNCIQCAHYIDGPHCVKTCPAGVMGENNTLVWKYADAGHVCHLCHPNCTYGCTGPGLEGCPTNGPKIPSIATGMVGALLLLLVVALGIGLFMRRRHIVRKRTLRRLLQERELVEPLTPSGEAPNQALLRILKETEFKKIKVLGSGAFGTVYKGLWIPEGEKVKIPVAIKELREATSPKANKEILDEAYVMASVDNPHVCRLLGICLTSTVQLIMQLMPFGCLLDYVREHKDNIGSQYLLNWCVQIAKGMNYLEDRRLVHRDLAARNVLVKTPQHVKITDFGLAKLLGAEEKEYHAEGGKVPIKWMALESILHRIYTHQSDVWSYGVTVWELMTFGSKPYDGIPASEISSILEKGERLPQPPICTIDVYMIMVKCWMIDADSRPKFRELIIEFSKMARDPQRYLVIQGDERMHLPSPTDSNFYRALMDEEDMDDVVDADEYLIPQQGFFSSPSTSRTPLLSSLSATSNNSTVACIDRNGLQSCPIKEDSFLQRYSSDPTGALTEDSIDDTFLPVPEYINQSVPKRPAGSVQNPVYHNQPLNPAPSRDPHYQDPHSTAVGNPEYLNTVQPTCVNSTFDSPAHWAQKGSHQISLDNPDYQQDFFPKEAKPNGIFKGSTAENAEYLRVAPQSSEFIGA
T11 sequence (Q96RR4 whole entry): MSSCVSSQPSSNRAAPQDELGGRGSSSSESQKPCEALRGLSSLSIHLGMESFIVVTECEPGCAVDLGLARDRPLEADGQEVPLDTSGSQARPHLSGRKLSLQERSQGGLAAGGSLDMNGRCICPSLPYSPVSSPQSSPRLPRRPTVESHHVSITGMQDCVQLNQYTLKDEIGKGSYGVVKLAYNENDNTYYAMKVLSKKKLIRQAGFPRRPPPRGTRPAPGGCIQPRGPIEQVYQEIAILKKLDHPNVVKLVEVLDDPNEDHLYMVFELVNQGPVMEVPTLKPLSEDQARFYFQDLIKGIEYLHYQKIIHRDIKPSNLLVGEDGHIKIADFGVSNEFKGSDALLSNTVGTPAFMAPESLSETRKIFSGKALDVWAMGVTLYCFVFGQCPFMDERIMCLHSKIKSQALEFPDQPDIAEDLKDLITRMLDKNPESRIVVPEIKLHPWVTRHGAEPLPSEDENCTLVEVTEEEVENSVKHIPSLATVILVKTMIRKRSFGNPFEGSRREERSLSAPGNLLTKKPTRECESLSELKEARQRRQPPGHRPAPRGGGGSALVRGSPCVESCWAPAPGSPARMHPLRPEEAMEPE

Row | Structure (SMILES) | remaining binding at 1 µM (panel of 468 kinases [1]) | remaining binding at 1 µM (panel of 468 kinases [2]) | remaining binding at 1 µM (panel of 468 kinases [3]) | remaining binding at 1 µM (panel of 468 kinases [4]; FLT3-autoinhibited) | remaining binding at 1 µM (panel of 468 kinases [4]; FLT3) | remaining binding at 1 µM (panel of 468 kinases [5]; RSK2(Kin.Dom.1-N-terminal)) | remaining binding at 1 µM (panel of 468 kinases [5]; RSK2(Kin.Dom.2-C-terminal)) | remaining binding at 1 µM (panel of 468 kinases [6]) | remaining binding at 1 µM (panel of 468 kinases [7]) | remaining binding at 1 µM (panel of 468 kinases [8]) | remaining binding at 1 µM (panel of 468 kinases [9]) | remaining binding at 1 µM (panel of 468 kinases [10]) | remaining binding at 1 µM (panel of 468 kinases [11]) | remaining binding at 1 µM (panel of 468 kinases [12]) | % control (panel of 468 kinases [13]; EGFR(L747-E749del, A750P)) | % control (panel of 468 kinases [13]; EGFR(L747-S752del, P753S)) | % control (panel of 468 kinases [13]; EGFR(L747-T751del,Sins)) | % control (panel of 468 kinases [13]; FLT3(ITD)) | % control (panel of 468 kinases [13]; FLT3(ITD,D835V)) | % control (panel of 468 kinases [13]; FLT3(ITD,F691L))
1 | CNc1nc(Nc2ccc(C(=O)N3CCC(N4CCOCC4)CC3)c3c2OCO3)nc2[nH]cc(Cl)c12 [Compound 75, (7-((5-chloro-4-(methylamino)-7H-pyrrolo[2,3-d]pyrimidin-2-yl)amino)benzo[d][1,3]dioxol-4-yl)(4-morpholinopiperidin-1-yl)methanone] | 35% | 63% | 24% | 83% | 40% | 71% | 31% | 100% | 89% | 100% | 100% | 100% | 42% | 100% | 100% | 87% | 100% | 33% | 2% | 2.8%
2 | CNc1nc(Nc2ccc(S(=O)(=O)N3CCC(N4CCOCC4)CC3)cc2OC)nc2[nH]cc(Cl)c12 [Compound 12, 5-chloro-N2-(2-methoxy-4-((4-morpholinopiperidin-1-yl)sulfonyl)phenyl)-N4-methyl-7H-pyrrolo[2,3-d]pyrimidine-2,4-diamine] | 85% | 75% | 50% | 87% | 100% | 88% | 28% | 100% | 100% | 100% | 100% | 100% | 68% | 100% | 100% | 95% | 100% | 100% | 61% | 66%
3 | CNc1nc(Nc2ccc(P3(=O)CCN(C4CCOCC4)CC3)cc2OC)nc2[nH]cc(Cl)c12 [Compound 77, 4-(4-((5-chloro-4-(methylamino)-7H-pyrrolo[2,3-d]pyrimidin-2-yl)amino)-3-methoxyphenyl)-1-(tetrahydro-2H-pyran-4-yl)-1,4-azaphosphinane 4-oxide] | 93% | 55% | 18% | 94% | 86% | 70% | 34% | 100% | 93% | 100% | 99% | 100% | 25% | 100% | 92% | 99% | 100% | 81% | 19% | 40%
